In test [1] the test system is SKOV-3TR cells. The test can be described thus: MTT cytotoxicity assay, taxol-resistant SKOV-3TR versus parental SKOV-3. In kind it is cell-based, Human. Here is the method: (§1) All drugs were obtained from commercial sources. In vitro cytotoxicity was measured using a tetrazolium-based semi-automated calorimetric assay (i.e., MTT assay), as described (Carmichael et al., 1987, Cancer Res. 47:936-942). Briefly, 2×10^3 cells per well were cultured for 6 days with taxol or with taxol plus 30 μM verapamil. 20 μl of 5 mg/ml MTT solution was added to each well and incubated for 4 hours. A590 nm was measured after MTT formazan was solubilized with HCl-isopropanol solution. The absorbance values were normalized by assigning the value of the parent line in media to 1.0 and the value of the no-cell blank to 0. Experiments were performed in duplicate.
A taxol-resistant SKOV-3 subline, SKOV-3TR, was established by exposing SKOV-3 cells to taxol at stepwise increases in concentration (from 0.00001 μM to 0.3 μM taxol). […] The growth rate of […], was similar to that of parental SKOV-3. Cell lines were analyzed for their degree of taxol resistance by MTT cytotoxicity assays. […] This drug resistance profile is consistent with a MDR1 phenotype.
A general note: Tetrazolium dyes change colour on reduction, which living cells bring about.

In test [2] the test system is SKOV-3 TRAG-3 transfectants. The test can be described thus: MTT assay of taxol sensitivity in TRAG-3 stable transfectants of SKOV-3. Conditions: SKOV-3 lipotransfected with pCI/TRAG-3, G418 selected; initial results. In kind it is cell-based, Human. The procedure: as §1
pCI-neo Mammalian Expression Vector (Promega) was used to overexpress TRAG-3 cDNA in SKOV-3 cells. Constructs carrying TRAG-3 were introduced into SKOV-3 cells by using the PERFECT™ Transfection Kit (Invitrogen) according to the manufacturer's protocol. The individual G418 (300 μg/ml) resistant clones were isolated and examined by Northern analysis for stable expression of TRAG-3. MTT assays were performed on the transfectants to evaluate the effect of TRAG-3 on taxol sensitivity.
To elucidate the contribution of TRAG-3 gene product(s) to taxol resistance, taxol-sensitive SKOV-3 cells were lipotransfected with the pCI/TRAG-3 expression vector. After G418 selection, several TRAG-3 stable transfectant subclones were obtained. […]

Molecules are shown by their SMILES.

For `CC(=O)O[C@H]1C(=O)[C@@]2(C)[C@H]([C@H](OC(=O)c3ccccc3)[C@]3(O)C[C@H](OC(=O)[C@H](O)[C@@H](NC(=O)c4ccccc4)c4ccccc4)C(C)=C1C3(C)C)[C@]1(OC(C)=O)CO[C@@H]1C[C@@H]2O` [taxol], the “degree of taxol resistance of SKOV-3TR relative to SKOV-3” value in test [1] (MTT cytotoxicity, SKOV-3TR vs parental SKOV-3, 6 days culture) is “approximately 100 fold”. Also, the “taxol resistance of TRAG-3 transfectants compared to the parent line” value in test [2] is given as “no significant increase in taxol resistance”.
As for `COc1ccc(CCN(C)CCCC(C#N)(c2ccc(OC)c(OC)c2)C(C)C)cc1OC` (stereo not shown) [verapamil], in test [1] (taxol plus 30 μM verapamil, MTT assay, FIG. 1), the “effect of verapamil on SKOV-3TR's resistance to taxol” value is recorded as “reversed”.
As for `CC[C@]1(O)C[C@H]2CN(CCc3c([nH]c4ccccc34)[C@@](C(=O)OC)(c3cc4c(cc3OC)N(C=O)[C@H]3[C@@](O)(C(=O)OC)[C@H](OC(C)=O)[C@]5(CC)C=CCN6CC[C@]43[C@@H]65)C2)C1` [vincristine], the “resistance of SKOV-3TR to other drugs (cross-resistance)” value in test [1] (SKOV-3TR selected with taxol up to 0.3 μM) is reported as “cross-resistance”.

Source of the values: patent US6362321B1, “Taxol resistance associated gene” (The General Hospital Corporation, priority 1998, dated 2002).
